Columns and labels:
Conditions in all cases: in vivo
[1] = Volume of distribution in Swiss mouse at 5 mg/kg, po and 1 mg/kg, iv; assay type: ADME, organism-based
[2] = Oral bioavailability in Swiss mouse at 5 mg/kg; assay type: ADME, organism-based
[3] = Oral bioavailability in Beagle dog at 5 mg/kg; assay type: ADME, organism-based, Canis lupus familiaris
[4] = Oral bioavailability in Sprague-Dawley rat at 10 mg/kg; assay type: ADME, organism-based
[5] = Volume of distribution in Sprague-Dawley rat at 10 mg/kg, po and 1 mg/kg, iv; assay type: ADME, organism-based
[6] = Volume of distribution in Beagle dog at 5 mg/kg, po and 1 mg/kg, iv; assay type: ADME, organism-based, Canis lupus familiaris

COc1cc(C)c(S(=O)(=O)N(C)CCOCC(=O)N2CCN([C@@H]3CN4CCC3CC4)CC2)c(C)c1
Vd [1]: 1 L/kg | bioavailability [2]: 6.7%

COc1cc(C)c(S(=O)(=O)N(C)CCOCC(=O)N2CCN(C3CCN(C)CC3)CC2)c(C)c1
bioavailability [3]: 43% | Vd [1]: 1.3 L/kg | bioavailability [2]: 22% | bioavailability [4]: 18% | Vd [5]: 1.5 L/kg | Vd [6]: 2.7 L/kg

CCN1CCC(N2CCN(C(=O)COCCN(C)S(=O)(=O)c3c(C)cc(OC)cc3C)CC2)CC1
bioavailability [4]: 12% | Vd [5]: 3.8 L/kg

COc1cc(C)c(S(=O)(=O)N(C)CCOCC(=O)N2CCN(CC3CCN(C)CC3)CC2)c(C)c1
bioavailability [4]: 16% | Vd [5]: 3.5 L/kg

COc1cc(C)c(S(=O)(=O)N(C)CCOCC(=O)N2CCC(C(C)(C)CN(C)C)CC2)c(C)c1
bioavailability [4]: 3.8% | Vd [5]: 0.5 L/kg

COc1cc(C)c(S(=O)(=O)N(C)CCOCC(=O)N2CCC(CCN(C)C)CC2)c(C)c1
Vd [1]: 0.5 L/kg | bioavailability [2]: 38% | bioavailability [4]: 19% | Vd [5]: 0.79 L/kg

COc1cc(C)c(S(=O)(=O)N(C)CCOCC(=O)N2CCC(N3CCN(C)CC3)CC2)c(C)c1
bioavailability [4]: 6% | Vd [5]: 0.6 L/kg

COc1cc(C)c(S(=O)(=O)N(C)CCOCC(=O)N2CCC(C3CCN(C)CC3)CC2)c(C)c1
bioavailability [4]: 12.3% | Vd [5]: 0.6 L/kg

COc1cc(C)c(S(=O)(=O)N(C)CCOCC(=O)N(C)Cc2ccc(C3=NCCN3)cc2)c(C)c1 [SAFOTIBANT]
Vd [1]: 2.6 L/kg | bioavailability [2]: 12% | bioavailability [4]: 0.3% | Vd [5]: 1.4 L/kg
